One compound from patent US20070160691A1, “Pharmaceutical composition for treating and preventing cancer comprising cinnamoni cortex extract and zizyphi fructus extract” (KOREA RESEARCH INSTITUTE OF BIOSCIENCE AND BIOTECH, priority 2003, published 2007) can be followed below.

In general, inhibition refers to the change of the read-out against control, counted positive when it falls. A higher inhibition goes with a response far below the control.

Test [1] concerns MDA-MB-231 breast cancer cells. In words: Cancer cell migration assay in Boyden chamber. The format is cell-based. To be noted: 6 hrs, FIG. 3. Here is the method: Cultured MDA-MB-231 breast cancer cells were detached from culture dishes using a trypsin/EDTA solution (Gifco, USA), neutralized with trypsin inhibitor (0.5 mg/ml, Sigma, USA), and washed twice with culture medium. The cells were then counted using a hematocytometer. Cell migration was assayed using a Boyden chamber. HCA was added to a lower compartment of the Boyden chamber through holes with concentrations of 0 μM, 1 μM, 5 μM and 10 μM. After the lower compartment of the Boyden chamber was covered with a polycarbonate membrane (8 μm pore, Neuro Probe, Inc, USA), an upper compartment of the Boyden chamber was assembled with the lower compartment, and […] MDA-MB-231 cells were inoculated in the upper compartment through holes. After the Boyden chamber was incubated in an incubator for 6 hrs, the membrane was immersed in methanol to fix the cells. Then, the membrane was air-dried, stained with a 10% Girkmsa staining solution (Sigma, USA)for 1 hr, and destained with water for 10 sec. Herein, after non-migratedcells (an upper side of the membrane) were removed using a swab, migrated cells (a lower side of the membrane) were counted under a microscope.

Test [2] concerns PARP (poly(ADP-ribose) polymerase) in MDA-MB-231 breast cancer cells. In words: PARP cleavage by Western blotting. Format: cell-based. To be noted: MDA-MB-231 cells, 10 μM and 30 μM HCA, 48 hrs, compared to DMSO; FIG. 2. As to the method:
(§1) MDA-MB-231 breast cancer cells and SW620 colon cancer cells were seeded onto 100-mm culture dishes at densities of 1×10^6 and 2×10^6 cells, respectively. After 18 hrs, the cells were treated with 10 μM and 30 μM of HCA and further cultured for 48 hrs.
(§2) Then, to analyze PARP (poly(ADP-ribose) polymerase) cleavage by the HCA treatment, the cells were lysed using RIPA buffer (50 mM Tris-HCl, pH 7.4, 150 mM NaCl, 5 mM EDTA, 1% NP-40, 1 mM sodium vanadate, 0.5% sodium deoxycholate, and 0.05% sodium deoxysulfate). The cell lysates were centrifuged at 13,000 rpm and the supernatants were recovered. In the supernatants, protein concentrations were determined using a Bradford reagent (Bio-Rad Protein Assay, USA). Protein samples of 30 μg were separated on a 7.5% SDS-PAGE (SDS-polyacrylamide gel electrophoresis) gel. Proteins were then electro-transferred onto a PVDF membrane. The blot was blocked using 5% skim milk in TBST (50 mM Tris-HCl, pH 7.6, 150 mM NaCl, 0.1% Tween 20). Intracellular PARP was detected using a PARP-specific antibody (Cell signaling Technology, USA), a HRP (horse radish peroxidase)-conjugated secondary antibody, and a chemiluminescence POD reagent (Roche, Germany).
Background: A western blot detects proteins with antibodies after separation by electrophoresis.

Another test concerns SW620 colon cancer cells. Kind of test: DNA fragmentation (apoptosis induction), agarose gel electrophoresis. The format is cell-based, human. To be noted: 10 μM and 30 μM HCA, 48 hrs, compared to DMSO, FIG. 1. Here is the method:
(§3) MDA-MB-231 breast cancer cells and SW620 colon cancer cells were seeded onto 100-mm culture dishes at densities of 1×10^6 and 2×10^6 cells, respectively. After 18 hrs, the cells were treated with 10 μM and 30 μM of 2′-hydroxycinnamaldehyde(HCA) and further cultured for 48 hrs.
(§4) Then, to analyze DNA cleavage by the HCA treatment, the cells were lysed using RIPA buffer (50 mM Tris-HCl, pH 7.4, 150 mM NaCl, 5 mM EDTA, 1% NP-40, 1 mM sodium vanadate, 0.5% sodium deoxycholate, and 0.05% sodium deoxysulfate). The cell lysates were centrifuged at 13,000 rpm. The supernatants were subjected to phenol extraction to remove proteins, and the nucleic acid layers were recovered. Potassium acetate was added to each nucleic acid layer in a final concentration of 50 mM, and an equal volume of isopropyl alcohol was added thereto to precipitate nucleic acids. The precipitated nucleic acids were washed with 80% ethanol and dried. The dried nucleic acids were dissolved in 30 μl of TE buffer, and treated with Dnase-free RNase at 37° C. for 1 hr to remove RNA.
(§5) The resulting DNA samples were electrophoresed on a 1.5% agarose gel to investigate DNA fragmentation by HCA.

The subject of test [3] is PARP (poly(ADP-ribose) polymerase) in SW620 colon cancer cells. In words: PARP cleavage by Western blotting. The format is cell-based, human. To be noted: 10 μM and 30 μM HCA, 48 hrs, compared to DMSO, FIG. 2. Here is the method:
as §1, §2

For test [4], the system named is MDA-MB-231 breast cancer cells. In words: DNA fragmentation (apoptosis induction), agarose gel electrophoresis. The format is cell-based. To be noted: MDA-MB-231 cells, 10 μM and 30 μM HCA, 48 hrs, compared to DMSO; FIG. 1. As to the method: as §3, §4, §5

As for `O=C/C=C/c1ccccc1O` [HCA, 2′-hydroxycinnamaldehyde], the inhibition at 30 µM in test [1] (Homo sapiens, MDA-MB-231, at 30 μM) was more than 50%. Besides, the “inhibition of cell migration” value in test [1] (at 5 μM) was “inhibited cell migration”. For the same compound, the PARP cleavage entry in test [2] is “a decrease in normal full-length PARP (116 kDa) and an increase in cleaved PARP (89 kDa)”; in test [3] it was “a decrease in normal full-length PARP (116 kDa) and an increase in cleaved PARP (89 kDa)”. Further, the “DNA fragmentation by HCA” value (with SW620 colon cancer cells; in test [4]) was “fragmentation of chromosonal DNA into uniform DNA fragments” each time.
